Experimental data reported in ChEMBL document CHEMBL5046216, “Disrupting Tryptophan in the Central Hydrophobic Region Selectively Mitigates Immunomodulatory Activities of the Innate Defence Regulator Peptide IDR-1002” (J Med Chem, 2021).
Activity calls are given as the source filed them. The calls are words filed in the database; no cut-off is given here.

Columns and labels:
HBEC3-KT [1] = experiment: Cytotoxicity against human HBEC3-KT incubated for 24 hrs by LDH assay; type: functional
[2] = Retention time of the compound by HPLC analysis; type: physicochemical
HBEC3-KT [3] = experiment: Antiinflammatory activity in human HBEC3-KT cells assessed as fold increase in STC1 expression at 10 uM measured after 24 hrs by ELISA relative to control; type: functional
Mus musculus [4] = experiment: Effect on MIP1alpha level in dust-mite-induced BALB/c mouse model of airway inflammation assessed as greater than 2 fold induction at 6 mg/kg, sc administered for 2 weeks and measured 24 hrs post-HDM challenge by MSD multiplex assay; type: functional, organism-based
Mus musculus [5] = experiment: Effect on MIP2 level in dust-mite-induced BALB/c mouse model of airway inflammation assessed as greater than 2 fold induction at 6 mg/kg, sc administered for 2 weeks and measured 24 hrs post-HDM challenge by MSD multiplex assay; type: functional, organism-based
Mus musculus [6] = experiment: Effect on IL-21 level in dust-mite-induced BALB/c mouse model of airway inflammation assessed as greater than 2 fold induction at 6 mg/kg, sc administered for 2 weeks and measured 24 hrs post-HDM challenge by MSD multiplex assay; type: functional, organism-based
Mus musculus [7] = experiment: (§1) Antiinflammatory activity in house dust-mite-induced BALB/c mouse model of methacholine-induced airway hyperreactivity assessed as reduction in methacholine-induced newtonian resistance at 6 mg/kg , ip administered for 2 weeks after methacholine-stimulation at 12 mg/ml measured 24 hrs post-HDM challenge; type: functional, organism-based
Mus musculus [8] = experiment: Effect on MIP3alpha level in dust-mite-induced BALB/c mouse model of airway inflammation assessed as greater than 2 fold induction at 6 mg/kg, sc administered for 2 weeks and measured 24 hrs post-HDM challenge by MSD multiplex assay; type: functional, organism-based
Mus musculus [9] = experiment: Effect on IL-15 level in dust-mite-induced BALB/c mouse model of airway inflammation assessed as greater than 2 fold induction at 6 mg/kg, sc administered for 2 weeks and measured 24 hrs post-HDM challenge by MSD multiplex assay; type: functional, organism-based
HBEC3-KT [10] = experiment: Antiinflammatory activity in human HBEC3-KT cells assessed as fold increase in IL-1RA expression at 10 uM measured after 24 hrs by ELISA relative to control; type: functional
Mus musculus [11] = experiment: Effect on KC 10 level in dust-mite-induced BALB/c mouse model of airway inflammation assessed as greater than 2 fold induction at 6 mg/kg, sc administered for 2 weeks and measured 24 hrs post-HDM challenge by MSD multiplex assay; type: functional, organism-based
Mus musculus [12] = experiment: Antiinflammatory activity in house dust-mite-induced BALB/c mouse model of airway inflammation assessed as suppression of total leukocyte count in BALF at 6 mg/kg, sc administered for 2 weeks and measured 24 hrs post-HDM challenge by Wright-Giemsa staining based microscopy; type: functional
Mus musculus [13] = experiment: Antiinflammatory activity in house dust-mite-induced BALB/c mouse model of airway inflammation assessed as suppression of IL-33 abundance in lung tissue lysate at 6 mg/kg, sc administered for 2 weeks and measured 24 hrs post-HDM challenge by ELISA; type: functional
Mus musculus [14] = experiment: Effect on IL-22 level in dust-mite-induced BALB/c mouse model of airway inflammation assessed as greater than 2 fold induction at 6 mg/kg, sc administered for 2 weeks and measured 24 hrs post-HDM challenge by MSD multiplex assay; type: functional, organism-based
Mus musculus [15] = experiment: Effect on MCP1 level in dust-mite-induced BALB/c mouse model of airway inflammation assessed as greater than 2 fold induction at 6 mg/kg, sc administered for 2 weeks and measured 24 hrs post-HDM challenge by MSD multiplex assay; type: functional, organism-based
Mus musculus [16] = experiment: Effect on IL-1beta level in dust-mite-induced BALB/c mouse model of airway inflammation assessed as greater than 2 fold induction at 6 mg/kg, sc administered for 2 weeks and measured 24 hrs post-HDM challenge by MSD multiplex assay; type: functional, organism-based
Mus musculus [17] = experiment: Effect on IL-17F level in dust-mite-induced BALB/c mouse model of airway inflammation assessed as greater than 2 fold induction at 6 mg/kg, sc administered for 2 weeks and measured 24 hrs post-HDM challenge by MSD multiplex assay; type: functional, organism-based
Mus musculus [18] = experiment: Effect on IP10 level in dust-mite-induced BALB/c mouse model of airway inflammation assessed as greater than 2 fold induction at 6 mg/kg, sc administered for 2 weeks and measured 24 hrs post-HDM challenge by MSD multiplex assay; type: functional, organism-based
Mus musculus [19] = experiment: Effect on IL-23 level in dust-mite-induced BALB/c mouse model of airway inflammation assessed as greater than 2 fold induction at 6 mg/kg, sc administered for 2 weeks and measured 24 hrs post-HDM challenge by MSD multiplex assay; type: functional, organism-based
Mus musculus [20] = experiment: Effect on IL-17C level in dust-mite-induced BALB/c mouse model of airway inflammation assessed as greater than 2 fold induction at 6 mg/kg, sc administered for 2 weeks and measured 24 hrs post-HDM challenge by MSD multiplex assay; type: functional, organism-based
Mus musculus [21] = experiment: Effect on IL-30 level in dust-mite-induced BALB/c mouse model of airway inflammation assessed as greater than 2 fold induction at 6 mg/kg, sc administered for 2 weeks and measured 24 hrs post-HDM challenge by MSD multiplex assay; type: functional, organism-based
Mus musculus [22] = experiment: Antiinflammatory activity in house dust-mite-induced BALB/c mouse model of airway inflammation assessed as suppression of total neutrophil count in BALF at 6 mg/kg, sc administered for 2 weeks and measured 24 hrs post-HDM challenge by Wright-Giemsa staining based microscopy; type: functional
Mus musculus [23] = experiment: Antiinflammatory activity in house dust-mite-induced BALB/c mouse model of methacholine-induced airway hyperreactivity assessed as reduction in methacholine-induced tissue elastance at 6 mg/kg , ip administered for 2 weeks after methacholine-stimulation at 12 mg/ml measured 24 hrs post-HDM challenge; type: functional, organism-based
Mus musculus [24] = experiment: Effect on IFNgamma level in dust-mite-induced BALB/c mouse model of airway inflammation assessed as greater than 2 fold induction at 6 mg/kg, sc administered for 2 weeks and measured 24 hrs post-HDM challenge by MSD multiplex assay; type: functional, organism-based
Mus musculus [25] = experiment: Effect on TNF 1 level in dust-mite-induced BALB/c mouse model of airway inflammation assessed as greater than 2 fold induction at 6 mg/kg, sc administered for 2 weeks and measured 24 hrs post-HDM challenge by MSD multiplex assay; type: functional, organism-based
Mus musculus [26] = experiment: Antiinflammatory activity in house dust-mite-induced BALB/c mouse model of airway inflammation assessed as suppression of total eosinophil count in BALF at 6 mg/kg, sc administered for 2 weeks and measured 24 hrs post-HDM challenge by Wright-Giemsa staining based microscopy; type: functional
Mus musculus [27] = experiment: Effect on IL-25 level in dust-mite-induced BALB/c mouse model of airway inflammation assessed as greater than 2 fold induction at 6 mg/kg, sc administered for 2 weeks and measured 24 hrs post-HDM challenge by MSD multiplex assay; type: functional, organism-based
HBEC3-KT [28] = experiment: Antiinflammatory activity in human HBEC3-KT cells assessed as effect on MCP1 expression measured after 24 hrs by ELISA relative to control; type: functional, cell-based
HBEC3-KT [29] = experiment: Antiinflammatory activity in INFgamma-induced MCP1 expressed in human HBEC3-KT cells assessed as fold change measured after 24 hrs by ELISA relative to control; type: functional
Mus musculus [30] = experiment: as §1, with “50” for “12”; type: functional; set-up: scale not given: the % may be the effect or the level left
Mus musculus [31] = experiment: Antiinflammatory activity in house dust-mite-induced BALB/c mouse model of methacholine-induced airway hyperreactivity assessed as reduction in methacholine-induced tissue elastance at 6 mg/kg , ip administered for 2 weeks after methacholine-stimulation at 50 mg/ml measured 24 hrs post-HDM challenge; type: functional; set-up: scale not given: the % may be the effect or the level left
Mus musculus [32] = experiment: Effect on IL-5 level in dust-mite-induced BALB/c mouse model of airway inflammation assessed as greater than 2 fold induction at 6 mg/kg, sc administered for 2 weeks and measured 24 hrs post-HDM challenge by MSD multiplex assay; type: functional, organism-based
Mus musculus [33] = experiment: Effect on IL-6 level in dust-mite-induced BALB/c mouse model of airway inflammation assessed as greater than 2 fold induction at 6 mg/kg, sc administered for 2 weeks and measured 24 hrs post-HDM challenge by MSD multiplex assay; type: functional, organism-based
Mus musculus [34] = experiment: Antiinflammatory activity in house dust-mite-induced BALB/c mouse model of methacholine-induced airway hyperreactivity assessed as reduction in methacholine-induced tissue damping at 6 mg/kg , ip administered for 2 weeks after methacholine-stimulation at 12 mg/ml measured 24 hrs post-HDM challenge; type: functional, organism-based
Mus musculus [35] = experiment: Antiinflammatory activity in house dust-mite-induced BALB/c mouse model of methacholine-induced airway hyperreactivity assessed as reduction in methacholine-induced tissue damping at 6 mg/kg , ip administered for 2 weeks after methacholine-stimulation at 50 mg/ml measured 24 hrs post-HDM challenge; type: functional; set-up: scale not given: the % may be the effect or the level left
HBEC3-KT [36] = experiment: Immunomodulatory activity in human HBEC3-KT cells assessed as suppression of INFgamma-induced IL-33 at 10 uM preincubated for 30 mins followed by INFgamma stimulation and measured after 24 hrs by Western blot analysis; type: functional
Mus musculus [37] = experiment: Effect on IL-17A level in dust-mite-induced BALB/c mouse model of airway inflammation assessed as greater than 2 fold induction at 6 mg/kg, sc administered for 2 weeks and measured 24 hrs post-HDM challenge by MSD multiplex assay; type: functional, organism-based
Mus musculus [38] = experiment: Effect on IL-10 level in dust-mite-induced BALB/c mouse model of airway inflammation assessed as greater than 2 fold induction at 6 mg/kg, sc administered for 2 weeks and measured 24 hrs post-HDM challenge by MSD multiplex assay; type: functional, organism-based
Mus musculus [39] = experiment: Effect on IL-12p70 level in dust-mite-induced BALB/c mouse model of airway inflammation assessed as greater than 2 fold induction at 6 mg/kg, sc administered for 2 weeks and measured 24 hrs post-HDM challenge by MSD multiplex assay; type: functional, organism-based
Mus musculus [40] = experiment: Effect on IL-9 level in dust-mite-induced BALB/c mouse model of airway inflammation assessed as greater than 2 fold induction at 6 mg/kg, sc administered for 2 weeks and measured 24 hrs post-HDM challenge by MSD multiplex assay; type: functional, organism-based
Mus musculus [41] = experiment: Effect on IL-17AF level in dust-mite-induced BALB/c mouse model of airway inflammation assessed as greater than 2 fold induction at 6 mg/kg, sc administered for 2 weeks and measured 24 hrs post-HDM challenge by MSD multiplex assay; type: functional, organism-based
Mus musculus [42] = experiment: Effect on IL-31 level in dust-mite-induced BALB/c mouse model of airway inflammation assessed as greater than 2 fold induction at 6 mg/kg, sc administered for 2 weeks and measured 24 hrs post-HDM challenge by MSD multiplex assay; type: functional, organism-based
Mus musculus [43] = experiment: Effect on IL-2 level in dust-mite-induced BALB/c mouse model of airway inflammation assessed as greater than 2 fold induction at 6 mg/kg, sc administered for 2 weeks and measured 24 hrs post-HDM challenge by MSD multiplex assay; type: functional, organism-based
[44] = Stability of the compound in human HBEC3-KT cells assessed as compound degradation ay 10 uM measured after 16 hrs by FRET assay relative to control; type: functional
Mus musculus [45] = experiment: Effect on IL-4 level in dust-mite-induced BALB/c mouse model of airway inflammation assessed as greater than 2 fold induction at 6 mg/kg, sc administered for 2 weeks and measured 24 hrs post-HDM challenge by MSD multiplex assay; type: functional, organism-based

Substance: H-VLRWLIVWRIRK-OH
- Activity (HBEC3-KT [1]): 50%
- Retention_time [2]: 17.4 min

Substance: H-VQRWLIVIRIRK-OH
- Activity (HBEC3-KT [1]): 50%
- Retention_time [2]: 14.48 min

Substance: H-VQRWLIVRRIRK-OH
- fold change (FC) (HBEC3-KT [3]): inactive
- Activity (Mus musculus [4]): inactive
- Activity (Mus musculus [5]): inactive
- Activity (Mus musculus [6]): inactive
- Activity (Mus musculus [7]): Active
- Activity (Mus musculus [8]): inactive
- Activity (Mus musculus [9]): inactive
- Activity (HBEC3-KT [1]): inactive
- Activity (HBEC3-KT [10]): inactive
- Activity (Mus musculus [11]): inactive
- Activity (Mus musculus [12]): inactive
- Activity (Mus musculus [13]): inactive
- Activity (Mus musculus [14]): inactive
- Activity (Mus musculus [15]): inactive
- Activity (Mus musculus [16]): inactive
- Activity (Mus musculus [17]): inactive
- Activity (Mus musculus [18]): inactive
- Activity (Mus musculus [19]): inactive
- Activity (Mus musculus [20]): inactive
- Activity (Mus musculus [21]): inactive
- Activity (Mus musculus [22]): inactive
- Activity (Mus musculus [23]): Active
- Activity (Mus musculus [24]): inactive
- Activity (Mus musculus [25]): inactive
- Activity (Mus musculus [26]): inactive
- Activity (Mus musculus [27]): inactive
- Activity (HBEC3-KT [28]): inactive
- fold change (FC) (HBEC3-KT [29]): inactive
- Activity (Mus musculus [30]): 39%
- Activity (Mus musculus [31]): 63%
- Activity (Mus musculus [32]): inactive
- Activity (Mus musculus [33]): inactive
- Activity (Mus musculus [34]): Active
- Activity (Mus musculus [35]): 64%
- Activity (HBEC3-KT [36]): inactive
- Activity (Mus musculus [37]): inactive
- Activity (Mus musculus [38]): inactive
- Activity (Mus musculus [39]): inactive
- Retention_time [2]: 14.04 min
- Activity (Mus musculus [40]): inactive
- Activity (Mus musculus [41]): inactive
- Activity (Mus musculus [42]): inactive
- Activity (Mus musculus [43]): inactive
- Activity [44]: <5%
- Activity (Mus musculus [45]): inactive
